Source: ChEMBL document CHEMBL1201862, “PubChem BioAssay data set” (2004)
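96-well plates; 48 h exposure; 5 concentrations. Endpoints by linear interpolation between flanking doses. Not reached: highest tested concentration assigned. GI50 marks 50% less growth.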 Activity calls are given as the source filed them. Cut-off read from the data, not from the text of the source: active = GI50 up to about 1.1 µM and inactive = higher.

Experiments:
Assay in all cases: growth of human tumour cells (NCI), 48 h
HOP-92 = tested on: HOP-92
PC-3 = tested on: PC-3
ACHN = tested on: ACHN
MDA-MB-435 = tested on: MDA-MB-435
UACC-62 = tested on: UACC-62
SF-268 = tested on: SF-268
EKVX = tested on: EKVX
SK-MEL-5 = tested on: SK-MEL-5
SR = tested on: SR
TK-10 = tested on: TK-10
HOP-62 = tested on: HOP-62
Hs-578T = tested on: Hs-578T
SK-MEL-2 = tested on: SK-MEL-2
SNB-19 = tested on: SNB-19
OVCAR-8 = tested on: OVCAR-8
SN12C = tested on: SN12C
BT-549 = tested on: BT-549
RXF 393 = tested on: RXF 393
A549 = tested on: A549
T47D = tested on: T47D

Measured: GI50

O=c1[nH]c2c(S)nc(O)nc2n1-c1ccccc1
inactive: HOP-92 > 100 µM | PC-3 > 100 µM | ACHN > 100 µM | MDA-MB-435 > 100 µM | UACC-62 > 100 µM | SF-268 > 100 µM | EKVX > 100 µM | SK-MEL-5 > 100 µM | SR > 100 µM | TK-10 > 100 µM | HOP-62 > 100 µM | Hs-578T > 100 µM | SK-MEL-2 > 100 µM | SNB-19 > 100 µM | OVCAR-8 > 100 µM | SN12C > 100 µM | BT-549 > 100 µM | RXF 393 > 100 µM | A549 > 100 µM

O=C(O)CCSCc1ccccc1
inactive: PC-3 > 100 µM | ACHN > 100 µM | T47D > 100 µM | MDA-MB-435 > 100 µM | UACC-62 > 100 µM | SF-268 > 100 µM | EKVX > 100 µM | SK-MEL-5 > 100 µM | TK-10 > 100 µM | HOP-62 > 100 µM | Hs-578T > 100 µM | SK-MEL-2 > 100 µM | SNB-19 > 100 µM | OVCAR-8 > 100 µM | SN12C > 100 µM | BT-549 > 100 µM | RXF 393 > 100 µM | A549 > 100 µM

CCNC(=S)NNC(=O)C12CC3CC(CC(C3)C1)C2
inactive: PC-3 > 100 µM | ACHN > 100 µM | T47D > 100 µM | MDA-MB-435 > 100 µM | UACC-62 > 100 µM | SF-268 > 100 µM | SK-MEL-5 > 100 µM | TK-10 > 100 µM | HOP-62 > 100 µM | Hs-578T > 100 µM | SK-MEL-2 > 100 µM | SNB-19 > 100 µM | OVCAR-8 > 100 µM | SN12C > 100 µM | BT-549 > 100 µM | RXF 393 > 100 µM | A549 > 100 µM

Cn1c(=O)c2c(nc(-n3nc(-c4ccc(Cl)cc4)cc3N)n2C)n(C)c1=O
inactive: HOP-92 > 100 µM | PC-3 > 100 µM | ACHN > 100 µM | MDA-MB-435 > 100 µM | UACC-62 65.6 µM | SF-268 9.91 µM | EKVX > 100 µM | SK-MEL-5 6.37 µM | SR 13 µM | TK-10 > 100 µM | HOP-62 10.5 µM | Hs-578T 22.4 µM | SK-MEL-2 > 100 µM | SNB-19 > 100 µM | OVCAR-8 18.1 µM | SN12C > 100 µM | BT-549 44.5 µM | RXF 393 > 100 µM | A549 > 100 µM

Cc1cc(-c2ccc[nH]2)on1
inactive: HOP-92 > 100 µM | PC-3 > 100 µM | ACHN > 100 µM | MDA-MB-435 > 100 µM | UACC-62 > 100 µM | SF-268 > 100 µM | EKVX > 100 µM | SK-MEL-5 > 100 µM | TK-10 > 100 µM | HOP-62 > 100 µM | Hs-578T > 100 µM | SK-MEL-2 > 100 µM | SNB-19 > 100 µM | OVCAR-8 > 100 µM | BT-549 > 100 µM | RXF 393 > 100 µM | A549 > 100 µM

CCOc1ccc(/C=C2/C(=O)N/C(=N\C(C)=O)N2C)cc1
inactive: HOP-92 > 100 µM | ACHN > 100 µM | T47D > 100 µM | MDA-MB-435 > 100 µM | UACC-62 > 100 µM | SF-268 > 100 µM | EKVX 54.2 µM | SK-MEL-5 > 100 µM | TK-10 > 100 µM | HOP-62 96.6 µM | SK-MEL-2 > 100 µM | SNB-19 > 100 µM | OVCAR-8 > 100 µM | SN12C > 100 µM | BT-549 > 100 µM | RXF 393 > 100 µM | A549 > 100 µM

CCNC1(c2cccc(C)c2)OC(C)(C)c2cccc3cccc1c23 (configuration not stated)
inactive: HOP-92 3.83 µM | ACHN 17 µM | T47D 26.9 µM | MDA-MB-435 16.9 µM | UACC-62 15.6 µM | SF-268 16 µM | EKVX 18.8 µM | SK-MEL-5 19.1 µM | SR 5.16 µM | TK-10 17.3 µM | HOP-62 21 µM | Hs-578T 20.1 µM | SK-MEL-2 15.7 µM | SNB-19 18.2 µM | OVCAR-8 18.4 µM | SN12C 19 µM | BT-549 18.9 µM | RXF 393 16.8 µM | A549 15.6 µM

Cc1ccc(S(=O)(=O)NCCCCC(N)C(=O)O)cc1 (configuration not stated)
inactive: HOP-92 > 100 µM | PC-3 > 100 µM | ACHN > 100 µM | T47D > 100 µM | MDA-MB-435 > 100 µM | UACC-62 > 100 µM | SF-268 > 100 µM | EKVX > 100 µM | SK-MEL-5 > 100 µM | HOP-62 > 100 µM | Hs-578T > 100 µM | SNB-19 > 100 µM | OVCAR-8 > 100 µM | SN12C > 100 µM | BT-549 > 100 µM | RXF 393 > 100 µM | A549 > 100 µM

c1ccc2/c3[nH]/c(c2c1)=N\c1ccc(cc1)-c1nc2cc(ccc2o1)/N=c1/[nH]/c(c2ccccc12)=N/c1ccc2nc(oc2c1)-c1ccc(cc1)\N=3
inactive: PC-3 > 100 µM | ACHN > 100 µM | MDA-MB-435 42.4 µM | UACC-62 95.3 µM | SF-268 > 100 µM | EKVX > 100 µM | SK-MEL-5 > 100 µM | SR > 100 µM | HOP-62 78.3 µM | Hs-578T > 100 µM | SNB-19 > 100 µM | SN12C > 100 µM | BT-549 > 100 µM | RXF 393 > 100 µM

COC(=O)C1CC2(CCC1=O)Cc1ccccc1C2=O (configuration not stated)
inactive: PC-3 > 100 µM | ACHN > 100 µM | T47D > 100 µM | UACC-62 > 100 µM | SF-268 > 100 µM | EKVX 89.5 µM | SK-MEL-5 > 100 µM | SR 37.8 µM | TK-10 > 100 µM | HOP-62 > 100 µM | Hs-578T > 100 µM | SK-MEL-2 > 100 µM | SNB-19 > 100 µM | OVCAR-8 > 100 µM | SN12C > 100 µM | BT-549 > 100 µM | RXF 393 14.5 µM | A549 > 100 µM

COC(=O)C1(C)C=CC(=O)C2(C)C1C(O)C1OC3CC(c4ccoc4)C(C)=C3C1(C)C2CC(=O)O (configuration not stated)
inactive: HOP-92 > 100 µM | PC-3 > 100 µM | ACHN > 100 µM | T47D > 100 µM | MDA-MB-435 > 100 µM | UACC-62 > 100 µM | SF-268 > 100 µM | EKVX > 100 µM | SK-MEL-5 > 100 µM | TK-10 > 100 µM | Hs-578T > 100 µM | SK-MEL-2 > 100 µM | SNB-19 > 100 µM | OVCAR-8 > 100 µM | SN12C > 100 µM | BT-549 > 100 µM | A549 > 100 µM
